Results taken from US9241976B2, “Use of HDL-related molecules to treat and prevent proinflammatory conditions” (THE REGENTS OF THE UNIVERSITY OF CALIFORNIA, priority 2011, dated 2016).

How the values were obtained:
CD31 = experiment: ID8 flank tumor model, CD31 staining of vessels; format: in vivo, mouse; details: C57BL/6J mice, 10 mg/kg s.c. daily for 3 weeks, vs control group
Experimental: Nine-week-old C57BL/6J female mice were given a 0.5-ml subcutaneous injection of 5×10^6 ID8 cells prepared as a single cell suspension in PBS mixed with an equal volume of cold Matrigel (BD Biosciences, San Jose, Calif.). After 2 weeks, mice started to receive scrambled 4F peptide (sc-4F) or L-4F (10 mg/kg) by subcutaneous injection at a site distant from the site where the ID8 cells were injected daily for 3 weeks. After 3 weeks, the mice were sacrificed for tumor collection and further analyses.
Frozen tumor tissues were sectioned at a thickness of 5 μm and fixed with cold acetone for 10 min at −20° C. The sections were blocked with 10% normal goat serum and 4% bovine serum albumin prepared in PBS for 3 h and immediately incubated with rabbit anti-mouse polyclonal HIF-1α antibody (1:200) (Abcam Inc.) or rat anti-mouse monoclonal CD31 antibody (1:25) (Abcam Inc.) overnight at 4° C. The sections were then incubated with corresponding biotinylated secondary antibodies (Vector Laboratories) for 30 min at room temperature followed by incubation with Vectastain ABC Elite reagents (Vector Laboratories) to visualize the staining. Finally, sections were lightly counterstained with hematoxylin, dehydrated, and coverslipped with Vecta-Mount solution (Vector Laboratories).

HIF-1α = HIF-1α protein expression in human ovarian cancer cell lines, Western blot; format: cell-based
Experimental: OV2008 cells were cultured in RPMI 1640 media with 10% fetal bovine serum, penicillin (100 U/ml), streptomycin (100 μg/ml), 1× minimal essential medium nonessential amino acid solution (Invitrogen, Carlsbad, Calif.), and insulin (0.25 U/ml) (Invitrogen). CAOV-3 cells were cultured in complete media consisting of Dulbecco's modified Eagle's medium with high glucose and L-glutamine (2 mM), 10% fetal bovine serum, penicillin (100 U/ml), streptomycin (100 μg/ml), and insulin (0.02 U/ml). To create hypoxic conditions, cells were transferred to a hypoxic chamber (model 3130; Thermo Fisher Scientific, Waltham, Mass.), where they were maintained at 37° C. in an atmosphere containing 5% CO2, 1% O2, and 94% N2. L-4F (the peptide Ac-D-W-F-K-A-F-Y-D-K-V-A-E-K-F-K-E-A-F-NH2 (SEQ ID NO: 12) synthesized from all L amino acids) was dissolved in water at 1 mg/ml (freshly prepared every time) and used between 1 and 10 μg/ml. L-5F was synthesized by Peptisyntha Inc. (Torrance, Calif.), dissolved in ABCT buffer (50 mM ammonium bicarbonate, pH 7.0, containing 0.1 mg/ml Tween 20) at 1 mg/ml, and diluted to the required concentrations before use. Cobalt chloride (CoCl2), insulin, cycloheximide (CHX), and N-(benzyloxycarbonyl)leucinylleucinylleucinal-Z-Leu-Leu-Leu-al (MG-132) were purchased from Sigma-Aldrich (St. Louis, Mo.). LPA (Avanti Polar Lipids, Alabaster, Ala.) in chloroform was dried as recommended by the manufacturer, dissolved in ethanol at a concentration of 20 mM as a stock solution, and diluted to the required concentrations in the corresponding cell culture media before use.
Western blot analyses were performed as described previously (Gao et al., 2011). In brief, cell lysates were collected in a lysis buffer containing 0.1 MNaCl, 5 mM EDTA, 50 μM sodium orthovanadate, 1% Triton X-100, and protease inhibitor tablet (Roche Diagnostics, Indianapolis, Ind.) in 50 mM Tris buffer, pH 7.5, loaded onto 4 to 12% Bis-Tris gel (Invitrogen), transferred to polyvinylidene difluoride membrane, and incubated with the appropriate antibodies. Anti-pThr^202/Tyr^204-Erk, anti-Erk, anti-pThr^389-p70 S6 kinase, anti-p70 S6 kinase, anti-pSer^473-Akt, and anti-Akt antibodies were purchased from Cell Signaling Technology (Danvers, Mass.); mouse anti-human HIF-1α antibody was purchased from BD Pharmingen (San Diego, Calif.); rabbit anti-mouse HIF-1α antibody was purchased from Abcam Inc. (Cambridge, Mass.); and anti-GAPDH antibody was purchased from Santa Cruz Biotechnology Inc. (Santa Cruz, Calif.).

CT26 cells = details: BALB/c, mouse, 48 hours
Experimental: CT26 cell line derived from N-nitroso-N-methyl urethane-induced mouse colon carcinoma of BALB/c origin was purchased from the American Type Culture Collection (ATCC). CT26 cells (2,000 cells per well) were first cultured in complete medium in 96-well culture plates, and 24 hours later the medium was replaced with serum free medium. Following an overnight incubation, the cells were either treated with vehicle (control), or treated with 10 μg/mL of either bHDL. The bHDL were dissolved in H2O. Cells were incubated for an additional 48 hours and assayed for viability using the MTS assays kit (Promega) according to the manufacturer's protocol.
CT26 cell line derived from N-nitroso-N-methyl urethane-induced mouse colon carcinoma of BALB/c origin was purchased from the American Type Culture Collection. CT26 cells (2,000 cells per well) were first cultured in complete medium in 96-well culture plates, and 24 hours later the medium was replaced with serum-free medium. Following an overnight incubation, the cells were either treated with vehicle (control) or treated with 10 mg/mL of either L-4F or G* peptide. The peptides were dissolved in H2O. Cells were incubated for an additional 48 hours and assayed for viability using the MTS assay kit (Promega) according to the manufacturer's protocol.

[1] = system: cis-platinum-resistant human ovarian cancer cells; details: reference (17); cited from earlier work
HIF-1α mRNA = experiment: HIF-1α mRNA, real-time RT-PCR; format: cell-based, human
Experimental: Total RNA was extracted from cells by using a PureLink RNA Mini Kit (Invitrogen). The quantity and quality of RNA were assessed by using a SmartSpec 3000 Spectrophotometer (Bio-Rad Laboratories, Hercules, Calif.). cDNA was synthesized by using the High Capacity cDNA Reverse Transcription Kit (Applied Biosystems, Foster City, Calif.) according to the manufacturer's instructions. PCRs were performed by using the CFX96 realtime PCR system (Applied Biosystems). The cycling conditions were as follows: 3 min at 95° C. followed by 40 cycles of 95° C., 10 s; 60° C., 10 s; 72° C., 30 s followed by a final extension at 72° C. for 10 min. Each 25-μl reaction contained 0.4 μg of cDNA, 12.5 μl of SYBR Green qPCR SuperMix (Bio-Rad Laboratories), and 250 nM forward and reverse primers in nuclease-free water. […]

ID8 cells = details: cited from earlier work

## Ac-DWFKAFYDKVAEKFKEAF-NH2 [L-4F, Ac-D-W-F-K-A-F-Y-D-K-V-A-E-K-F-K-E-A-F-NH2]
CD31
  number of vessels in tumors: reduction in the number of vessels
HIF-1α; CAOV-3 cells
  CoCl2- and insulin-induced HIF-1α expression: dose-dependently inhibited
HIF-1α; OV2008 cells stimulated first with CoCl2 or insulin 3 h or 24 h, 10 μg/ml
  HIF-1α expression, post-treatment: significantly decreased
HIF-1α; OV2008 cells, pretreatment
  hypoxia-induced (low oxygen 1% O2, CoCl2) HIF-1α protein expression: dose-dependently suppressed
HIF-1α; SKOV3 cells
  CoCl2- and insulin-induced HIF-1α expression: dose-dependently inhibited
CT26 cells; 10 μg/mL
  Cell viability reduced by, compared with control: more than 20%
CT26 cells; 10 mg/mL
  Cell viability reduced, compared with control: more than 25%
[1]
  viability and proliferation: reduced
HIF-1α mRNA
  basal level of HIF-1α mRNA: no effect
ID8 cells; C57BL/6J mice, administered subcutaneously or orally, reference (17)
  ID-8 cell-mediated tumor burden: decreased
ID8 cells; immunocompetent mouse model of ovarian cancer, ID8 (Gao et al., 2011)
  tumor growth and angiogenesis: inhibited
